Results published in patent publication US11912667B2, “Morphic forms of hexadecyloxypropyl-phosphonate esters and methods of synthesis thereof” (EMERGENT BIODEFENSE OPERATIONS LANSING LLC, priority 2013, dated 2024).
Several values for one entry are separate records, joined by “and”; a condition that tells them apart may be missing. Equal entries are not always repeated.

Experiments:
Assay type in all cases: physicochemical
[1] = Slurry conversion of Form II to Form H in methanol:water, seeded with Form H; details: for Results (form recovered from slurry): stirred 7-9 days
Description: The present disclosure provides that an anhydrous form (e.g. Form II) is produced without forming a hydrate form (e.g., Form H) during the crystallization process, by determining the critical water concentration below which the anhydrous form is the stable form. The critical water concentration is determined by varying the methanol-water concentrations in the slurries.
In another embodiment, at concentrations of 97:3 methanol:water and greater, Form H was recovered from the slurries. These embodiments provide that the critical water concentration for forming Form II is between 1 and 3% water. In some embodiments, water in the initial methanol solvent is not accounted for, which results in slightly higher final water concentration than 1 and 3%. In additional embodiments, experiments, by varying the methanol-water concentrations in the slurries, is carried out at room temperature or at about 45° C. In one embodiment, the critical water concentration is less than 5% at room temperature and less than 10% at about 45° C. Mixtures of Form II and Form H are observed to convert to either Form II or Form H in methanol depending on the exact water content. The present disclosure provides that during crystallization of Form II, critical water activity remains very low up to about 45° C. and that water content in the final methanol recrystallization is a critical process parameter to control to avoid operating in conditions which favors formation of Form H.

[2] = Methanol solubility and metastable zone (MSZ), Crystal16; details: for Cloud Point 2: 0.03 C./min cooling rate; for Cloud Point 1: 0.5° C./min cooling rate
Description: MSZW is a nucleation kinetic-limited parameter that is highly dependent on process condition. Many factors may influence the value of MSZW, e.g., rate of cooling, agitation, the presence of foreign particles and impurities. MSZW decreases as stirrer speed increases; MSZW widens at N>400 rpm; and MSZW widens as cooling rate rises. In one embodiment, large differences in the metastable zone are observed for both Form II and Form I between the rapid cooling rate of about 0.5° C./min and a very slow cooling rate of about 0.03° C./min. In another embodiment, narrow metastable cooling rates are observed at higher concentrations (e.g., about 100 mg/mL).

[3] = Particle size analysis (PSA), Malvern Mastersizer 2000
Source text: Particle size data was acquired using a Malvern Instruments Mastersizer 2000 equipped with a Hydro2000 μP dispersion unit. Data was collected and analyzed using Mastersizer 2000 software (v. 5.60) using volume based measurements. NIST-traceable glass beads were used to qualify the instrument.

[4] = Weight increase upon increasing relative humidity; details: upon increasing relative humidity from 5.0% to 95.0%
Source text: In another embodiment of the invention, provided herein is Form II characterized as a solid form of Compound 1, such that the solid form undergoes a weight increase of less than 1.5% upon increasing relative humidity from 5.0% to 95.0%.

[5] = Stable form screening slurries and interconversion studies; details: for Form recovered from slurries: seeded with Form I, about two weeks
Description: In order to aid in the design of solid form screening experiments, solubility estimates were completed in various solvent systems using Form II at ambient and elevated temperature. […] Slurries were set up in a variety of solvent systems to determine the stable form and the potential of Compound 1 to form stable solvates. The slurries were prepared using Form II and each was seeded with Form I. Each of the slurries was stirred for about two weeks and most of the slurries were run at room temperature although a few were run at sub-ambient and elevated temperatures (˜45° C.). […] A few samples did show a minor amount of Form I in Form II likely due to poor conversion kinetics due to limited solubility. […] Interconversion studies starting with a mixture of Form I and Form II were also run in methanol at room temperature and ˜45° C.

[6] = Relative humidity (RH) stressing of Form II
Source text: In some embodiments, a composition comprising morphic Form II of the present disclosure converts to a hydrate Form (e.g., Form H) if stored under relative humidity (RH) of 40% or more. In some embodiments, a composition comprising morphic Form II of the present disclosure partially converts to morphic Form H if stored under relative humidity of equal to or more than 40% for several days. […] A complete conversion of a composition comprising the morphic Form II of the present disclosure occurs at about equal to or more than 80% RH, about equal to or more than 81% RH, about equal to or more than 82% RH, about equal to or more than 83% RH, about equal to or more than 84% RH, about equal to or more than 85% RH, about equal to or more than 86% RH, about equal to or more than 87% RH, about equal to or more than 88% RH, about equal to or more than 89% RH over between 5-20 days (e.g., 5 days, 6 days, 7 days, 8 days, 9 days, 10 days, 11 days, 12 days, 13 days, 14 days, 15 days, 16 days, 17 days, 18 days, 19 days, 20 days).
The present disclosure provides that exposure of Form II to higher humidity is sufficient for conversion to the hydrate form.

[7] = Estimated solubility by aliquot addition of solvent, visual inspection; details: for solubility: thermodynamic from solid
Description: The present disclosure provides morphic Form II with low solubility in methanol. The solubility may be estimated based on the total volume of solvent needed to provide complete dissolution. The actual solubility may be greater than the value calculated due to the incremental addition of solvent and kinetics of dissolution of the material. […] Solubility Determination: Aliquots of test solvents or solvent mixtures were added to weighed samples of Compound 1. Samples were sonicated as needed between additions to facilitate dissolution. Complete dissolution of the test material in each solvent was determined by visual inspection. The solubility was estimated based on the total volume of solvent needed to provide complete dissolution. The actual solubility may be greater than the value calculated due to the incremental addition of solvent and kinetics of dissolution of the material. […] See Table 2 and discussion under “Solubility” section in the “Detailed Description” of the present disclosure.

[8] = crystallized from methanol ~10 vols, seed ~0.5% Form II at ~58° C.
[9] = crystallized from methanol ~10 vols, seed ~3% Form II
[10] = 10% of total volume of particles no larger than the indicated size
[11] = 50% of total volume of particles no larger than the indicated size
[12] = 90% of total volume of particles no larger than the indicated size

SMILES: CCCCCCCCCCCCCCCCOCCCOP(=O)(O)CO[C@H](CO)Cn1ccc(N)nc1=O [Form II, phosphonic acid, [[(S)-2-(4-amino-2-oxo-1(2H)-pyrimidinyl)-1-(hydroxymethyl)ethoxy]methyl]mono[3-(hexadecyloxy)propyl] ester]
- Results (form recovered from slurry) ([1]; Methanol:water (80:20), ~44-45 °C): Form H
- Results (form recovered from slurry) ([1]; Methanol:water (85:15), ~44-45 °C): Form H
- Results (form recovered from slurry) ([1]; Methanol:water (90:10), RT): Form H
- Results (form recovered from slurry) ([1]; Methanol:water (90:10), ~44-45 °C): Form H
- Results (form recovered from slurry) ([1]; Methanol:water (93:7), RT): Form H
- Results (form recovered from slurry) ([1]; Methanol:water (93:7), ~2-8 °C): Form H
- Results (form recovered from slurry) ([1]; Methanol:water (95:5), RT): Form H
- Results (form recovered from slurry) ([1]; Methanol:water (95:5), ~2-8 °C): Form H
- Results (form recovered from slurry) ([1]; Methanol:water (95:5), ~44-45 °C): Form II +
- Results (form recovered from slurry) ([1]; Methanol:water (97:3), RT): Form II +
- Results (form recovered from slurry) ([1]; Methanol:water (97:3), ~2-8 °C): Form H
- Results (form recovered from slurry) ([1]; Methanol:water (99:1), ~2-8 °C): Form II
- critical water concentration ([1]; about 45° C. slurries in methanol:water): less than 10%
- critical water concentration ([1]; room temperature slurries in methanol:water): less than 5%
- Solubility in methanol compared to Form I [2]: Lower solubility
- Clear Point ([2]; 20.3 mg/mL): 53.6 °C
- Cloud Point 2 ([2]; 20.3 mg/mL): 38.2 °C
- Cloud Point 1 ([2]; 20.3 mg/mL): 37.6 °C
- Clear Point ([2]; 29.4 mg/mL): 56.2 °C
- Cloud Point 2 ([2]; 29.4 mg/mL): 44.6 °C
- Cloud Point 1 ([2]; 29.4 mg/mL): 45.1 °C
- Clear Point ([2]; 38.9 mg/mL): 58.1 °C
- Cloud Point 2 ([2]; 38.9 mg/mL): 51.1 °C
- Cloud Point 1 ([2]; 38.9 mg/mL): 45.1 °C
- Clear Point ([2]; 50.5 mg/mL): 60.2 °C
- Cloud Point 2 ([2]; 50.5 mg/mL): 56.6 °C
- Cloud Point 1 ([2]; 50.5 mg/mL): 51.0 °C
- Clear Point ([2]; 64.3 mg/mL): 60.5 °C
- Cloud Point 2 ([2]; 64.3 mg/mL): 58.8 °C
- Cloud Point 1 ([2]; 64.3 mg/mL): 48.5 °C
- Clear Point ([2]; 80.4 mg/mL): 61.2 °C
- Cloud Point 2 ([2]; 80.4 mg/mL): 57.9 °C
- Cloud Point 1 ([2]; 80.4 mg/mL): 49.7 °C
- Clear Point ([2]; 95.6 mg/mL): 61.9 °C
- Cloud Point 2 ([2]; 95.6 mg/mL): 59.9 °C
- Cloud Point 1 ([2]; 95.6 mg/mL): 58.1 °C
- Clear Point ([2]; 166.6 mg/mL): 63.1 °C
- Cloud Point 2 ([2]; 166.6 mg/mL): 61.1 °C
- Cloud Point 1 ([2]; 166.6 mg/mL): 58.1 °C
- particle size distribution, volume weighted mean ([3]; FIG. 5): 25.663
- d10 [3, 8]: d10 = 17.8 μm
- d50 [3, 8]: 69.6 μm;
- d90 [3, 8]: d90 = 160.9 μm
- d10 [3, 9]: d10 = 9.8 μm
- d50 [3, 9]: 34.4 μm;
- d90 [3, 9]: d90 = 101.7 μm
- weight increase [4]: less than 1.5%
- Form recovered from slurries ([5]; anhydrous solvent systems, mostly room temperature): Form II was recovered
- Form recovered from slurries ([5]; aqueous solvent systems): converted to the hydrated form, Form H
- Solids recovered from interconversion studies ([5]; starting with a mixture of Form I and Form II, methanol, room temperature and ~45° C.): consistent with Form II
- Conversion to hydrate form on RH exposure ([6]; about 43% RH for about 12 days): partially converts to a hydrate form
- Conversion from Form II to Form H on RH exposure ([6]; about 43 to about 85% RH for about 12 days): minor conversion from Form II to Form H
- Conversion from Form II to Form H on RH exposure ([6]; about 85% RH): complete conversion of Form II to Form H
- Solubility in various solvent systems ([7]; ambient and elevated temperature, each of the solvents tested): poor solubility
- solubility ([7]; aqueous with cosolvent or surfactant or cyclodextrin, Methanol:Water 1:1, RT, estimated): < 3000 µg/mL
- solubility ([7]; aqueous with cosolvent or surfactant or cyclodextrin, Methanol:Water 1:1, ~63 °C, estimated): < 14000 µg/mL
- solubility ([7]; organic solvent or mixture, Trifluoroethanol, estimate): > 5000 µg/mL

SMILES: CCCCCCCCCCCCCCCCOCCCOP(=O)(O)CO[C@H](CO)Cn1ccc(N)nc1=O [Sample 1]
- d10 [3, 10]: 19.297 μm
- d50 [3, 11]: 81.603 μm
- d90 [3, 12]: 168.698 μm

SMILES: CCCCCCCCCCCCCCCCOCCCOP(=O)(O)CO[C@H](CO)Cn1ccc(N)nc1=O [Sample 3]
- d10 [3, 10]: 19.896 μm
- d50 [3, 11]: 101.748 μm and 101.745 μm

SMILES: CCCCCCCCCCCCCCCCOCCCOP(=O)(O)CO[C@H](CO)Cn1ccc(N)nc1=O [Sample 4]
- d10 [3, 10]: 17.410 μm
- d50 [3, 11]: 85.440 μm
- d90 [3, 12]: 199.029 μm
